Assay results published in patent publication USRE40086E1, “Method for treating bacterial infection with novel 7-substituted-9-substituted amino 6-demethyl-6-deoxytetracyclines” (Wyeth Holdings Corporation, priority 1991, dated 2008).
Values after ≈ are worked out from the molar mass of the structure shown. “Also recorded” adds a separate entry of the source. Where a name gives a salt, the structure may show the parent alone. Read-outs that look alike come from different tables or passages of the source.

Key:
[1] = test system: tetracycline sensitive and resistant Gram-positive and Gram-negative bacteria; assay: In vitro antibacterial evaluation, MIC by agar dilution (general, Tables I-V and IA); format: cell-based; conditions: summary of Tables I-V
[2] = test system: E. coli UBMS 89-1 (tetM); assay: MIC, agar dilution; format: cell-based; conditions: Escherichia coli
[3] = test system: S. aureus Smith (Sensitive); assay: MIC, agar dilution; format: cell-based; conditions: Staphylococcus aureus
[4] = test system: S. aureus ATCC 29213 (Sensitive); assay: MIC, agar dilution; format: cell-based; conditions: Staphylococcus aureus, ATCC29213
[5] = test system: N. gonorrhoeae IL 611 (Sensitive); assay: MIC, agar dilution; format: cell-based; conditions: Neisseria gonorrhoeae
[6] = test system: E. coli UBMS 89-2 (Sensitive); assay: MIC, agar dilution; format: cell-based; conditions: Escherichia coli
[7] = test system: E. faecalis ATCC 29212; assay: MIC, agar dilution; format: cell-based; conditions: Enterococcus faecalis, ATCC29212
[8] = test system: Enterococcus faecalis; assay: MIC against clinical isolates (Table V, A and O); format: cell-based
[9] = test system: Bacteroides spp.; assay: MIC against clinical isolates (Table V, A and O); format: cell-based
[10] = test system: S. aureus UBMS 90-1 (tetM); assay: MIC, agar dilution; format: cell-based
[11] = test system: E. coli UBMS 90-4 (tetM); assay: MIC, agar dilution; format: cell-based; conditions: Escherichia coli
[12] = test system: S. aureus UBMS 88-4 (Sensitive); assay: MIC, agar dilution; format: cell-based; conditions: S. aureus UBMS 88-4 (Sensitive)
[13] = test system: Haemophilus influenzae; assay: MIC against clinical isolates (Table V, A and O); format: cell-based; conditions: (18) tested
[14] = test system: E. coli cell-free ribosomes, strain MRE 600 (TC Sensitive Host); assay: E. coli in vitro cell free protein translation system (Table VI); format: biochemical
[15] = test system: E. coli UBMS 88-2 (Sensitive); assay: MIC, agar dilution; format: cell-based; conditions: Escherichia coli
[16] = test system: S. aureus UBMS 90-3 (Sensitive); assay: MIC, agar dilution; format: cell-based; conditions: Staphylococcus aureus, S. aureus UBMS 90-3 (Sensitive)
[17] = test system: S. aureus UBMS 90-1; assay: In vivo antibacterial evaluation, acute lethal infection in mice; conditions: Staphylococcus aureus, UBMS901, sc, read-out: ED50, median effective dose protecting 50% of the infected mice; mice infected with S. aureus UBMS 90-1 (tetM), single subcutaneous dosing
Description: (§1) In Vivo Antibacterial Evaluation (Table VII)

[18] = test system: S. aureus UBMS 90-2; assay: as above; conditions: Staphylococcus aureus, UBMS902, sc, read-out: ED50, median effective dose protecting 50% of the infected mice; mice infected with S. aureus UBMS 90-2 (tetM), single subcutaneous dosing
Description: as §1

[19] = test system: S. aureus UBMS 88-5 (tetM); assay: MIC, agar dilution; format: cell-based
[20] = test system: E. faecalis UBMS 90-6 (tetM); assay: MIC, agar dilution; format: cell-based; conditions: Enterococcus faecalis
[21] = test system: E. coli ATCC 25922; assay: MIC, agar dilution; format: cell-based; conditions: Escherichia coli, ATCC25922
[22] = test system: Klebsiella pneumoniae; assay: MIC against clinical isolates (Table V, A and O); format: cell-based; conditions: Klebsiella pneumoniae
[23] = test system: S. aureus IVES 1983 (meth. resistant); assay: MIC, agar dilution; format: cell-based; conditions: Staphylococcus aureus
[24] = test system: E. faecalis 12201; assay: MIC, agar dilution; format: cell-based; conditions: Enterococcus faecalis, 12201
[25] = test system: Proteus spp. indole+; assay: MIC against clinical isolates (Table V, A and O); format: cell-based
[26] = test system: E. faecalis UBMS 90-7 (tetM); assay: MIC, agar dilution; format: cell-based; conditions: Enterococcus faecalis
[27] = test system: E. coli UBMS 88-1 (tetB); assay: MIC, agar dilution; format: cell-based; conditions: Escherichia coli, E. coli UBMS 88-1 (tetB)
[28] = test system: Enterococcus faecium; assay: MIC against clinical isolates (Table V, A and O); format: cell-based
[29] = test system: S. aureus IVES 2943 (meth. resistant); assay: MIC, agar dilution; format: cell-based; conditions: Staphylococcus aureus
[30] = test system: S. haemolyticus AVAH 88-3; assay: MIC, agar dilution; format: cell-based; conditions: Staphylococcus haemolyticus, AVAH883
[31] = test system: N. gonorrhoeae 6418 (tetM); assay: MIC, agar dilution; format: cell-based; conditions: Neisseria gonorrhoeae
[32] = test system: Escherichia coli; assay: MIC against clinical isolates (Table V, A and O); format: cell-based; conditions: Escherichia coli
[33] = test system: S. aureus UBMS 90-2 (tetM); assay: MIC, agar dilution; format: cell-based; conditions: Staphylococcus aureus, S. aureus UBMS 90-2 (tetM)
[34] = test system: Neisseria gonorrhoeae; assay: MIC against clinical isolates (Table V, A and O); format: cell-based
[35] = test system: S. aureus UBMS 88-7 (tetK); assay: MIC, agar dilution; format: cell-based; conditions: Staphylococcus aureus
[36] = test system: E. coli cell-free ribosomes, strain MRE 600 (tetM) (Tet M Host); assay: E. coli in vitro cell free protein translation system (Table VI); format: biochemical
[37] = test system: Pseudomonas aeruginosa; assay: MIC vs recent clinical and agricultural isolates (Table V, KK); format: cell-based; conditions: [10] tested
[38] = test system: Enterobacter cloacae; assay: as above; format: cell-based; conditions: [10] tested
[39] = test system: Klebsiella oxytoca; assay: as above; format: cell-based; conditions: [10] tested
[40] = test system: Streptococcus pneumoniae; assay: as above; format: cell-based; conditions: [10] tested
[41] = test system: Pasturella multocida (Agricultural & Clinical); assay: as above; format: cell-based; conditions: [17] tested
[42] = test system: Listeria monocytogenes; assay: as above; format: cell-based; conditions: [8] tested
[43] = test system: Xanthomonas maltophilia; assay: as above; format: cell-based; conditions: [10] tested
[44] = test system: Streptococcus agalactiae; assay: as above; format: cell-based; conditions: [10] tested
[45] = test system: Enterococcus faecium; assay: as above; format: cell-based; conditions: [10] tested
[46] = test system: Proteus vulgaris; assay: as above; format: cell-based; conditions: [18] tested
[47] = test system: Streptococcus pyogenes; assay: as above; format: cell-based; conditions: [10] tested
[48] = test system: Bacertoides fragilis group; assay: as above; format: cell-based; conditions: [10] tested
[49] = test system: Bordetella bronchiseptica (Agricultural); assay: as above; format: cell-based; conditions: [10] tested
[50] = test system: Haemophilus influenzae; assay: as above; format: cell-based; conditions: [15] tested
[51] = test system: Enterobacter aerogenes; assay: as above; format: cell-based; conditions: [10] tested
[52] = test system: Proteus mirabilis; assay: as above; format: cell-based; conditions: [26] tested
[53] = test system: Enterococcus faecalis; assay: as above; format: cell-based; conditions: [10] tested
[54] = test system: Staphylococcus aureus, methicillin-susceptible; assay: as above; format: cell-based; conditions: [15] tested
[55] = test system: Moraxella catarrhalis; assay: as above; format: cell-based; conditions: [18] tested
[56] = test system: Clostridium perfringens; format: cell-based; conditions: [16] tested
[57] = test system: Citrobacter diversus; assay: MIC vs recent clinical and agricultural isolates (Table V, KK); format: cell-based; conditions: [10] tested
[58] = test system: Citrobacter freundii; assay: as above; format: cell-based; conditions: [10] tested

CN(C)c1cc(NC=O)c(O)c2c1CC1CC3C(N(C)C)C(O)=C(C(N)=O)C(=O)C3(O)C(O)=C1C2=O (stereo not drawn)
antibacterial activity in vitro (in words) [1]: good in vitro activity against tetracycline resistant strains containing the tetM resistance determinant; also recorded: superior to that of minocycline against other isolates

CN(C)c1cc(NC=O)c(O)c2c1CC1CC3C(N(C)C)C(O)=C(C(N)=O)C(=O)C3(O)C(O)=C1C2=O (stereo not drawn) [Compound A, 7-(Dimethylamino)-9-(formylamino)-6-demethyl-6-deoxytetracycline]
MIC [2]: 0.12 µg/mL (≈ 0.24 µM) | MIC [3]: ≤ 0.015 µg/mL | MIC [4]: ≤ 0.015 µg/mL | MIC [5]: 0.06 µg/mL (≈ 0.12 µM) | MIC [6]: 0.12 µg/mL (≈ 0.24 µM) | MIC [7]: ≤ 0.015 µg/mL | MIC50 ([8]; Enterococcus faecalis): 0.12 µg/mL (≈ 0.24 µM) | MIC90 ([8]; Enterococcus faecalis): 1 µg/mL (≈ 2 µM) | MIC Range ([8]; Enterococcus faecalis clinical isolates, (14) tested): <0.015 to 2.00 µg/mL | MIC50 ([9]; Bacteroides): 0.25 µg/mL (≈ 0.499 µM) | MIC90 ([9]; Bacteroides): 2 µg/mL (≈ 4 µM) | MIC Range ([9]; Bacteroides spp. clinical isolates, (15) tested): >0.15 to 4.00 µg/mL | MIC ([10]; S. aureus UBMS 90-1 (tetM)): 0.12 µg/mL (≈ 0.24 µM) | MIC ([10]; Staphylococcus aureus, S. aureus UBMS 90-1 (tetM)): 0.06 µg/mL (≈ 0.12 µM) | MIC [11]: 1 µg/mL (≈ 2 µM) | MIC [12]: <0.015 µg/mL | MIC ([12]; Staphylococcus aureus): 0.015 µg/mL (≈ 0.03 µM) | MIC50 [13]: 0.06 µg/mL (≈ 0.12 µM) | MIC90 [13]: 0.06 µg/mL (≈ 0.12 µM) | MIC Range [13]: <0.008 to 0.06 µg/mL | IC50, concentration of antibiotic required to inhibit protein synthesis by 50% compared to a drug-free control [14]: <0.3 µg/mL | MIC [15]: 0.12 µg/mL (≈ 0.24 µM) | MIC [16]: ≤ 0.015 µg/mL | ED50 [17]: 0.22 mg/kg | ED50 [18]: 0.49 mg/kg | MIC ([19]; S. aureus UBMS 88-5 (tetM)): 0.03 µg/mL (≈ 0.0599 µM) | MIC ([19]; Staphylococcus aureus, S. aureus UBMS 88-5 (tetM)): 0.06 µg/mL (≈ 0.12 µM) | MIC [20]: 0.12 µg/mL (≈ 0.24 µM) | MIC [21]: 0.06 µg/mL (≈ 0.12 µM) | MIC50 [22]: 0.5 µg/mL (≈ 0.999 µM) | MIC90 [22]: 0.5 µg/mL (≈ 0.999 µM) | MIC [23]: 8 µg/mL (≈ 16 µM) | MIC [24]: 0.12 µg/mL (≈ 0.24 µM) | MIC50 [25]: 2 µg/mL (≈ 4 µM) | MIC90 [25]: > 32 µg/mL | MIC [26]: 0.5 µg/mL (≈ 0.999 µM) | MIC [27]: 32 µg/mL (≈ 63.9 µM) | MIC50 ([28]; Enterococcus faecium): 0.06 µg/mL (≈ 0.12 µM) | MIC90 ([28]; Enterococcus faecium): 2 µg/mL (≈ 4 µM) | MIC Range ([28]; Enterococcus faecium clinical isolates, (11) tested): <0.015 to 2.00 µg/mL | MIC [29]: 4 µg/mL (≈ 7.99 µM) | MIC [30]: 0.03 µg/mL (≈ 0.0599 µM) | MIC [31]: 1 µg/mL (≈ 2 µM) | MIC50 [32]: 0.25 µg/mL (≈ 0.499 µM) | MIC90 [32]: > 32 µg/mL | MIC [33]: 0.03 µg/mL (≈ 0.0599 µM) | MIC50 ([34]; Neisseria gonorrhoeae): 0.03 µg/mL (≈ 0.0599 µM) | MIC90 ([34]; Neisseria gonorrhoeae): 1 µg/mL (≈ 2 µM) | MIC Range ([34]; Neisseria gonorrhoeae clinical isolates, (9) tested): 0.015 to 1.00 µg/mL | MIC [35]: 2 µg/mL (≈ 4 µM) | IC50, concentration of antibiotic required to inhibit protein synthesis by 50% compared to a drug-free control [36]: 0.4 µg/mL

CN(C)[C@@H]1C(O)=C(C(N)=O)C(=O)[C@@]2(O)C(O)=C3C(=O)c4c(O)cccc4[C@@](C)(O)[C@H]3C[C@@H]12 [TC, Tetracycline hydrochloride]
MIC (range over isolates) [37]: 2 to 32 µg/mL | MIC (range over isolates) [38]: 0.5 to 2 µg/mL | MIC (range over isolates) [39]: 0.5 to 1 µg/mL | MIC (range over isolates) [40]: 0.12 to 2 µg/mL | MIC ([10]; Staphylococcus aureus): 32 µg/mL | MIC [11]: 64 µg/mL | MIC ([12]; Staphylococcus aureus, read-out: MIC): 0.12 µg/mL | IC50, concentration of antibiotic required to inhibit protein synthesis by 50% compared to a drug-free control [14]: 0.6 µg/mL | MIC (range over isolates) [41]: 0.06 to 16 µg/mL | MIC (range over isolates) [42]: 0.12 to 0.5 µg/mL | MIC ([16]; read-out: MIC): 0.12 µg/mL | MIC (range over isolates) [43]: 8 to 16 µg/mL | MIC ([19]; Staphylococcus aureus): 32 µg/mL | MIC [20]: 32 µg/mL | MIC (range over isolates) [44]: 0.25 to 64 µg/mL | MIC (range over isolates) [45]: 0.12 to 64 µg/mL | MIC (range over isolates) [46]: 0.25 to 64 µg/mL | MIC (range over isolates) [47]: 0.12 to 16 µg/mL | MIC [26]: 32 µg/mL | MIC (range over isolates) [48]: 0.25 to 32 µg/mL | MIC (range over isolates) [49]: 0.12 to 0.25 µg/mL | MIC [31]: > 32 µg/mL | MIC (range over isolates) [50]: 1 to 32 µg/mL | MIC (range over isolates) [51]: 0.5 to 1 µg/mL | MIC (range over isolates) [52]: 0.5 to 64 µg/mL | MIC (range over isolates) [53]: 0.12 to 64 µg/mL | MIC (range over isolates) [54]: 0.12 to 1 µg/mL | MIC (range over isolates) [55]: 0.06 to 0.5 µg/mL | MIC (range over isolates) [56]: 0.015 to 16 µg/mL | MIC (range over isolates) [57]: 0.5 to 4 µg/mL | IC50, concentration of antibiotic required to inhibit protein synthesis by 50% compared to a drug-free control [36]: 2.0 µg/mL | MIC (range over isolates) [58]: 0.5 to 16 µg/mL
